Literature values as cited in PMC11267572, “A Repurposed Drug Interferes with Nucleic Acid to Inhibit the Dual Activities of Coronavirus Nsp13” (ACS Chemical Biology, 2024).

System: SARS-CoV-2 Omicron variant
Design: method as in PMID 36899912
Conditions: bronchial epithelial cells; cited from earlier work

In the case of `O=C(NCc1ccc(Oc2ccccc2)cc1)c1nc(-c2cc(Br)c(O)c(Br)c2)no1` [IOWH-032], the “inhibition of viral replication” value is given as “micromolar inhibition”.
